{"source": "paper PMC5218480", "about": "(PLoS ONE, 2017)", "tested_on": "MV-4-11 cells", "experiment": "Gene expression microarray analysis (Affymetrix PrimeView) and GSEA", "assay_type": "cell-based, human", "design": "RFU PODN (11730768_x_at) / Fold change /veh PODN (11730768_x_at) / RFU LINC00158 (11744669_a_at) / Fold change /veh LINC00158 (11744669_a_at) / RFU DUSP10 (11751237_a_at) / Fold change /veh DUSP10 (11751237_a_at) / RFU ID3 (11757404_x_at) / Fold change /veh ID3 (11757404_x_at) / RFU PLEKHG5 (11737974_s_at) / Fold change /veh PLEKHG5 (11737974_s_at) / RFU LRRC4B (11730491_at) / Fold change /veh LRRC4B (11730491_at) / RFU GIMAP4 (11747438_a_at) / Fold change /veh GIMAP4 (11747438_a_at) / RFU KRT8 (11758183_x_at) / Fold change /veh KRT8 (11758183_x_at) / RFU CNN1 (11734310_a_at) / Fold change /veh CNN1 (11734310_a_at) / RFU VPS37D (11726825_at) / Fold change /veh VPS37D (11726825_at) / RFU C10orf10 (11716522_x_at) / Fold change /veh C10orf10 (11716522_x_at) / RFU KIR2DL2 /// KIR2DL4 /// KIR2DL5A /// KIR2DL5B /// KIR2DS1 /// KIR2DS2 /// KIR2DS3 /// KIR2DS4 /// KIR3DL3 /// KIR3DL3 /// KIR3DS1 (11738374_at) / Fold change /veh KIR2DL2 /// KIR2DL4 /// KIR2DL5A /// KIR2DL5B /// KIR2DS1 /// KIR2DS2 /// KIR2DS3 /// KIR2DS4 /// KIR3DL3 /// KIR3DL3 /// KIR3DS1 (11738374_at) / RFU C1QL1 (11718748_at) / Fold change /veh C1QL1 (11718748_at) / RFU TMPRSS4 (11747572_a_at) / Fold change /veh TMPRSS4 (11747572_a_at) / RFU HAMP (11756126_x_at) / Fold change /veh HAMP (11756126_x_at) / RFU RNFT2 (11725882_a_at) / Fold change /veh RNFT2 (11725882_a_at) / RFU NR4A2 (11747474_a_at) / Fold change /veh NR4A2 (11747474_a_at) / RFU ABCC12 (11746883_a_at) / Fold change /veh ABCC12 (11746883_a_at) / RFU TMEM136 (11760407_x_at) / Fold change /veh TMEM136 (11760407_x_at) / RFU CLDN22 /// WWC2 (11732394_at) / Fold change /veh CLDN22 /// WWC2 (11732394_at) / RFU HLA-DPB1 (11760878_x_at) / Fold change /veh HLA-DPB1 (11760878_x_at) / RFU SPINT1 (11716480_a_at) / Fold change /veh SPINT1 (11716480_a_at) / RFU GAP43 (11754022_s_at) / Fold change /veh GAP43 (11754022_s_at) / RFU A4GNT (11735810_at) / Fold change /veh A4GNT (11735810_at) / RFU PRB3 (11715151_x_at) / Fold change /veh PRB3 (11715151_x_at) / RFU TUBB4B (11761932_at) / Fold change /veh TUBB4B (11761932_at) / RFU CAPN14 (11732068_a_at) / Fold change /veh CAPN14 (11732068_a_at) / RFU TMCC2 (11721928_a_at) / Fold change /veh TMCC2 (11721928_a_at) / RFU IRGQ (11745062_a_at) / Fold change /veh IRGQ (11745062_a_at) / RFU FAM174B (11720279_a_at) / Fold change /veh FAM174B (11720279_a_at) / RFU TMPRSS4 (11748680_a_at) / Fold change /veh TMPRSS4 (11748680_a_at) / RFU FAM212B (11763350_a_at) / Fold change /veh FAM212B (11763350_a_at) / RFU PLEKHG5 (11743358_a_at) / Fold change /veh PLEKHG5 (11743358_a_at) / RFU ZSCAN30 (11745921_a_at) / Fold change /veh ZSCAN30 (11745921_a_at) / RFU CMKLR1 (11741424_a_at) / Fold change /veh CMKLR1 (11741424_a_at) / RFU LOC101060620 /// MAPK8IP1 (11723275_at) / Fold change /veh LOC101060620 /// MAPK8IP1 (11723275_at) / RFU SPTSSB (11747773_x_at) / Fold change /veh SPTSSB (11747773_x_at) / RFU PRSS12 (11739890_at) / Fold change /veh PRSS12 (11739890_at) / RFU BIN1 (11741810_x_at) / Fold change /veh BIN1 (11741810_x_at) / RFU WNT11 (11732464_a_at) / Fold change /veh WNT11 (11732464_a_at) / RFU C10orf10 (11716521_a_at) / Fold change /veh C10orf10 (11716521_a_at) / RFU C5orf56 (11738089_at) / Fold change /veh C5orf56 (11738089_at) / RFU CYB561 (11721691_x_at) / Fold change /veh CYB561 (11721691_x_at) / RFU ANKRD19P (11752326_a_at) / Fold change /veh ANKRD19P (11752326_a_at) / RFU OR2T12 /// OR2T33 /// OR2T8 (11738714_s_at) / Fold change /veh OR2T12 /// OR2T33 /// OR2T8 (11738714_s_at) / RFU VCAN (11748164_a_at) / Fold change /veh VCAN (11748164_a_at) / RFU JSRP1 (11732532_at) / Fold change /veh JSRP1 (11732532_at) / RFU KRTAP10-11 (11738290_x_at) / Fold change /veh KRTAP10-11 (11738290_x_at) / RFU MYO3A (11730013_a_at) / Fold change /veh MYO3A (11730013_a_at) / RFU EBF3 (11725865_a_at) / Fold change /veh EBF3 (11725865_a_at) / RFU CAMK2N1 (11719241_x_at) / Fold change /veh CAMK2N1 (11719241_x_at) / RFU C5orf56 (11738088_a_at) / Fold change /veh C5orf56 (11738088_a_at) / RFU OLFML3 (11715873_a_at) / Fold change /veh OLFML3 (11715873_a_at) / RFU LOC100653217 /// NTM (11731650_a_at) / Fold change /veh LOC100653217 /// NTM (11731650_a_at) / RFU MAPK11 (11762145_a_at) / Fold change /veh MAPK11 (11762145_a_at) / RFU FIZ1 (11724087_x_at) / Fold change /veh FIZ1 (11724087_x_at) / RFU OASL (11726364_x_at) / Fold change /veh OASL (11726364_x_at) / RFU SOX15 (11748057_x_at) / Fold change /veh SOX15 (11748057_x_at) / RFU CD79A (11719716_a_at) / Fold change /veh CD79A (11719716_a_at) / RFU HIST1H1D (11736915_at) / Fold change /veh HIST1H1D (11736915_at) / RFU CASKIN2 (11723855_a_at) / Fold change /veh CASKIN2 (11723855_a_at) / RFU LOC730098 (11760151_x_at) / Fold change /veh LOC730098 (11760151_x_at) / RFU OR4N2 (11742367_at) / Fold change /veh OR4N2 (11742367_at) / RFU PRRT2 (11749266_a_at) / Fold change /veh PRRT2 (11749266_a_at) / RFU SNX32 (11753110_a_at) / Fold change /veh SNX32 (11753110_a_at) / RFU CDHR5 (11726645_a_at) / Fold change /veh CDHR5 (11726645_a_at) / RFU RCAN1 (11760418_a_at) / Fold change /veh RCAN1 (11760418_a_at) / RFU FAM167A (11723789_a_at) / Fold change /veh FAM167A (11723789_a_at) / RFU FAM26E (11764081_at) / Fold change /veh FAM26E (11764081_at) / RFU ISYNA1 (11749810_s_at) / Fold change /veh ISYNA1 (11749810_s_at) / RFU ACY1 (11761880_at) / Fold change /veh ACY1 (11761880_at) / RFU 11764098_at / Fold change /veh 11764098_at / RFU SAMD14 (11745864_x_at) / Fold change /veh SAMD14 (11745864_x_at) / RFU NPB (11741838_a_at) / Fold change /veh NPB (11741838_a_at) / RFU TMPRSS6 (11731388_a_at) / Fold change /veh TMPRSS6 (11731388_a_at) / RFU KRTAP10-2 (11738614_at) / Fold change /veh KRTAP10-2 (11738614_at) / RFU ARHGAP8 /// PRR5-ARHGAP8 (11727945_x_at) / Fold change /veh ARHGAP8 /// PRR5-ARHGAP8 (11727945_x_at) / RFU KRTAP5-7 /// NADSYN1 (11734609_at) / Fold change /veh KRTAP5-7 /// NADSYN1 (11734609_at) / RFU RASL12 (11751679_a_at) / Fold change /veh RASL12 (11751679_a_at) / RFU CDKN2B (11736163_a_at) / Fold change /veh CDKN2B (11736163_a_at) / RFU PRF1 (11729649_at) / Fold change /veh PRF1 (11729649_at) / RFU, ZNF638 /// ZNF638-IT1 / Fold change vs veh, ZNF638 /// ZNF638-IT1 / RFU, PANK3 / Fold change vs veh, PANK3 / RFU, SH3YL1 / Fold change vs veh, SH3YL1 / RFU, ZEB2 / Fold change vs veh, ZEB2 / RFU, NRIP1 / Fold change vs veh, NRIP1 / RFU, PTTG1IP / Fold change vs veh, PTTG1IP / RFU, CAPN2 / Fold change vs veh, CAPN2 / RFU, MED14 / Fold change vs veh, MED14 / RFU, SNORA58 / Fold change vs veh, SNORA58 / RFU, C1orf63 / Fold change vs veh, C1orf63 / RFU, LRRFIP1 / Fold change vs veh, LRRFIP1 / RFU, NDUFAF7 / Fold change vs veh, NDUFAF7 / RFU, SLC12A2 / Fold change vs veh, SLC12A2 / RFU, IBTK / Fold change vs veh, IBTK / RFU, ESF1 / Fold change vs veh, ESF1 / Fold change vs veh, TMEM50B / RFU, TAOK1 / Fold change vs veh, TAOK1 / RFU, ACBD3 / Fold change vs veh, ACBD3 / RFU, TMA16 / Fold change vs veh, TMA16 / RFU, RWDD3 / Fold change vs veh, RWDD3 / RFU, BCAT1 / Fold change vs veh, BCAT1 / RFU, EDEM3 / Fold change vs veh, EDEM3 / RFU, TMEM33 / Fold change vs veh, TMEM33 / RFU, WDR75 / Fold change vs veh, WDR75 / RFU, AHCTF1 / Fold change vs veh, AHCTF1 / RFU, TFRC / Fold change vs veh, TFRC / RFU, ZDHHC17 / Fold change vs veh, ZDHHC17 / RFU, NOM1 / Fold change vs veh, NOM1 / RFU, ARL8B / Fold change vs veh, ARL8B / RFU, ZBTB11 / Fold change vs veh, ZBTB11 / RFU, TAMM41 / Fold change vs veh, TAMM41 / RFU, KIAA1704 /// LOC100996395 / Fold change vs veh, KIAA1704 /// LOC100996395 / RFU, ING1 / Fold change vs veh, ING1 / RFU, TRMT61B / Fold change vs veh, TRMT61B / RFU, FUBP3 / Fold change vs veh, FUBP3 / RFU, TP53 / Fold change vs veh, TP53 / RFU, TNKS2 / Fold change vs veh, TNKS2 / RFU, ZFP14 / Fold change vs veh, ZFP14 / RFU, ACTR2 / Fold change vs veh, ACTR2 / RFU, PPP3R1 / Fold change vs veh, PPP3R1 / RFU, PIK3R1 / Fold change vs veh, PIK3R1 / RFU, HNRNPA1 / Fold change vs veh, HNRNPA1 / RFU, RNF170 / Fold change vs veh, RNF170 / RFU, ZNF28 / Fold change vs veh, ZNF28 / RFU, RNGTT / Fold change vs veh, RNGTT / RFU, OGT / Fold change vs veh, OGT / RFU, BRD1 / Fold change vs veh, BRD1 / RFU, MARS / Fold change vs veh, MARS / RFU, ZNF655 / Fold change vs veh, ZNF655 / RFU, FAHD1 / Fold change vs veh, FAHD1 / RFU, BDP1 / Fold change vs veh, BDP1 / RFU, LRRCC1 / Fold change vs veh, LRRCC1 / RFU, ARID1A / Fold change vs veh, ARID1A / RFU, ZNF146 / Fold change vs veh, ZNF146 / RFU, ZNF330 / Fold change vs veh, ZNF330 / RFU, GPN3 / Fold change vs veh, GPN3 / RFU, C9orf123 / Fold change vs veh, C9orf123 / RFU, N4BP2L2 / Fold change vs veh, N4BP2L2 / RFU, ARFIP1 / Fold change vs veh, ARFIP1 / RFU, FAM179B / Fold change vs veh, FAM179B / RFU, BCL10 / Fold change vs veh, BCL10 / RFU, UHRF1BP1L / Fold change vs veh, UHRF1BP1L / RFU, BET1 / Fold change vs veh, BET1 / RFU, CNOT2 / Fold change vs veh, CNOT2 / RFU, ZNF268 / Fold change vs veh, ZNF268 / Fold change vs veh, ZNF507 / RFU, DGCR2 / Fold change vs veh, DGCR2 / RFU, WDSUB1 / Fold change vs veh, WDSUB1 / Fold change vs veh, HSP90B1 /// MIR3652 / RFU, ADSS / Fold change vs veh, ADSS / RFU, GK / Fold change vs veh, GK / RFU, ZNF148 / Fold change vs veh, ZNF148 / RFU, TAF9 / Fold change vs veh, TAF9 / RFU, SLC1A5 / Fold change vs veh, SLC1A5 / RFU, SLMO2 / Fold change vs veh, SLMO2 / RFU, ABCC4 / Fold change vs veh, ABCC4 / RFU, LOC101060439 /// RAP1B / Fold change vs veh, LOC101060439 /// RAP1B / RFU, RFX7 / Fold change vs veh, RFX7 / RFU, GTPBP10 / Fold change vs veh, GTPBP10 / RFU, CNEP1R1 / Fold change vs veh, CNEP1R1 / RFU, BIVM-ERCC5 /// ERCC5 / Fold change vs veh, BIVM-ERCC5 /// ERCC5 / RFU, ILF3 / Fold change vs veh, ILF3 / RFU 11762660_at / Fold change /veh 11762660_at / RFU VCAN (11757783_s_at) / Fold change /veh VCAN (11757783_s_at) / RFU DDX43 (11728927_at) / Fold change /veh DDX43 (11728927_at) / RFU KRT8 (11758188_x_at) / Fold change /veh KRT8 (11758188_x_at) / RFU NKD1 (11759106_at) / Fold change /veh NKD1 (11759106_at) / RFU SRD5A1 (11742802_a_at) / Fold change /veh SRD5A1 (11742802_a_at) / RFU TPSAB1 /// TPSB2 (11721975_s_at) / Fold change /veh TPSAB1 /// TPSB2 (11721975_s_at) / RFU GSTM3 (11746129_a_at) / Fold change /veh GSTM3 (11746129_a_at) / RFU IL23R (11737362_x_at) / Fold change /veh IL23R (11737362_x_at) / RFU TMEM51 (11727254_a_at) / Fold change /veh TMEM51 (11727254_a_at) / RFU PIWIL2 (11732686_x_at) / Fold change /veh PIWIL2 (11732686_x_at) / RFU ORM1 (11744905_x_at) / Fold change /veh ORM1 (11744905_x_at) / RFU CCDC152 (11743942_at) / Fold change /veh CCDC152 (11743942_at) / RFU ECM1 (11717891_a_at) / Fold change /veh ECM1 (11717891_a_at) / RFU IL23R (11748794_a_at) / Fold change /veh IL23R (11748794_a_at) / RFU TNFAIP8L3 (11732012_x_at) / Fold change /veh TNFAIP8L3 (11732012_x_at) / RFU MBOAT4 (11741988_at) / Fold change /veh MBOAT4 (11741988_at) / RFU 11764193_at / Fold change /veh 11764193_at / RFU TMEM53 (11763286_at) / Fold change /veh TMEM53 (11763286_at) / RFU MAGEB2 (11727129_at) / Fold change /veh MAGEB2 (11727129_at) / RFU TMEM200A (11744735_a_at) / Fold change /veh TMEM200A (11744735_a_at) / RFU CCDC152 (11751479_a_at) / Fold change /veh CCDC152 (11751479_a_at) / RFU FAM211A (11726209_a_at) / Fold change /veh FAM211A (11726209_a_at) / RFU RGS16 (11746705_a_at) / Fold change /veh RGS16 (11746705_a_at) / RFU VCAN (11755009_s_at) / Fold change /veh VCAN (11755009_s_at) / RFU RHOB (11743442_s_at) / Fold change /veh RHOB (11743442_s_at) / RFU RGS16 (11720943_a_at) / Fold change /veh RGS16 (11720943_a_at) / RFU RGS16 (11720944_at) / Fold change /veh RGS16 (11720944_at) / RFU, VPS4B / Fold change vs veh, VPS4B / RFU, CREB1 / Fold change vs veh, CREB1 / RFU, DNAJC13 / Fold change vs veh, DNAJC13 / RFU, GNAQ / Fold change vs veh, GNAQ / RFU, CDK5R1 / Fold change vs veh, CDK5R1 / RFU, ZRANB3 / Fold change vs veh, ZRANB3 / RFU, CUL4A / Fold change vs veh, CUL4A / RFU, CCNY / Fold change vs veh, CCNY / RFU, UFL1 / Fold change vs veh, UFL1 / RFU, COG3 / Fold change vs veh, COG3 / RFU, DIAPH2 / Fold change vs veh, DIAPH2 / RFU, SKA2 / Fold change vs veh, SKA2 / RFU, AFF3 / Fold change vs veh, AFF3 / RFU, LMF1 / Fold change vs veh, LMF1 / RFU, IPO11 / Fold change vs veh, IPO11 / RFU, DFFB / Fold change vs veh, DFFB / RFU, FOXP1 / Fold change vs veh, FOXP1 / RFU, CARD8 / Fold change vs veh, CARD8 / RFU, STRN3 / Fold change vs veh, STRN3 / RFU, ADK / Fold change vs veh, ADK / RFU, RASSF2 / Fold change vs veh, RASSF2 / RFU, WIPF1 / Fold change vs veh, WIPF1 / RFU, LARP1B / Fold change vs veh, LARP1B / RFU, RASA1 / Fold change vs veh, RASA1 / RFU, RB1 / Fold change vs veh, RB1 / RFU, PPFIA1 / Fold change vs veh, PPFIA1 / RFU, MAT2A / Fold change vs veh, MAT2A / RFU, CCT5 / Fold change vs veh, CCT5 / RFU, WDR92 / Fold change vs veh, WDR92 / RFU, CUX1 / Fold change vs veh, CUX1 / RFU, TTC7A / Fold change vs veh, TTC7A / RFU, TMEM135 / Fold change vs veh, TMEM135 / RFU, DEPTOR / Fold change vs veh, DEPTOR / RFU, CPM / Fold change vs veh, CPM / RFU, DNAJB6 / Fold change vs veh, DNAJB6 / RFU, CACNA2D3 / Fold change vs veh, CACNA2D3 / RFU, DTX4 / Fold change vs veh, DTX4 / RFU, TFCP2 / Fold change vs veh, TFCP2 / RFU, GMCL1 /// GMCL1P1 / Fold change vs veh, GMCL1 /// GMCL1P1 / RFU, AEBP2 / Fold change vs veh, AEBP2 / RFU, SNHG1 /// SNORD22 /// SNORD25 /// SNORD26 /// SNORD27 /// SNORD28 /// SNORD29 /// SNORD31 / Fold change vs veh, SNHG1 /// SNORD22 /// SNORD25 /// SNORD26 /// SNORD27 /// SNORD28 /// SNORD29 /// SNORD31 / Fold change (Aza/veh), C12orf56 (ProbeSet 11735607_a_at) / Fold change (ACY-1035/veh), C12orf56 (ProbeSet 11735607_a_at) / Fold change (Aza/veh), FGFR1OP (ProbeSet 11751329_s_at) / Fold change (ACY-1035/veh), FGFR1OP (ProbeSet 11751329_s_at) / Fold change (Aza/veh), VPS36 (ProbeSet 11739960_a_at) / Fold change (ACY-1035/veh), VPS36 (ProbeSet 11739960_a_at) / RFU SYPL1 (11715823_x_at) / Fold change /veh SYPL1 (11715823_x_at) / RFU IGFBP7 (11715501_s_at) / Fold change /veh IGFBP7 (11715501_s_at) / RFU REEP3 (11722064_at) / Fold change /veh REEP3 (11722064_at) / RFU IGLL1 (11728026_x_at) / Fold change /veh IGLL1 (11728026_x_at): dose or concentration left out as unconfirmed", "conditions": "ProbeSet 11727958_a_at; LIST B", "data": [{"smiles": "Nc1ncn([C@@H]2O[C@H](CO)[C@@H](O)[C@H]2O)c(=O)n1", "note": "[azacitidine]", "values": [{"measurement": "Fold change vs veh, ING1", "result": 0.99}]}]}
